Laboratory results published in patent US20220389061A1, “IMMUNOMODULATORS” (priority 2019, published 2022).
Starred links: 1 amine or outer side, 2 acyl side, 3 side chain; linkers in the order of their positions; H or OH if unused. Positions of bridges follow the written chain, without caps; N, C: chain ends. Non-standard residues stand in square brackets, D forms with d. Residues, ends and D or L forms follow the SMILES beside them. Groups on a side chain read outwards from the residue. *: point of attachment. Trp(1-CH2CO2Me) = COC(=O)Cn1cc(C[C@H](N)C(=O)O)c2ccccc21; Trp(1-CH2COOH) = N[C@@H](Cc1cn(CC(=O)O)c2ccccc12)C(=O)O; X23 = COc1cc(NC(=S)*)ccc1-n1cnc(Cl)c1; X1 = S=C(Nc1ccc2c(c1)Cc1ccccc1-2)*; X50 = COc1cc(NC(=S)*)ccc1-c1cnco1; Hyp = O=C(O)[C@@H]1C[C@@H](O)CN1; X19 = CCOC(=O)c1ccc(NC(=S)*)cc1; X84 = COc1cc(NC(=S)*)cc(OC)c1OC; X30 = FC(F)(F)c1ccc(N*)c(Cl)c1; X91 = Cc1cc(NC(=S)*)c2ccccc2n1; pNA = O=[N+]([O-])c1ccc(N*)cc1; X55 = COc1cc(NC(=S)*)cc(OC)c1; NMeNle = CCCC[C@H](NC)C(=O)O; X12 = S=C(Nc1ccc2ccccc2c1)*; NMeA = CN[C@@H](C)C(=O)O; Dab = NCC[C@H](N)C(=O)O; X45 = c1ccc2sc(N*)cc2c1; Dap = NC[C@H](N)C(=O)O; X37 = Fc1cc(F)cc(N*)c1; CO = O=C([*:1])[*:2]; Bz = O=C(c1ccccc1)*

These compounds were tested against T1, PD-1/PD-L1 (Homo sapiens, UniProt Q9NZQ7) (assay: PD-1/PD-L1 Homogenous Time-Resolved Fluorescence (HTRF) binding assay). Conditions: not given.
T1 construct: TVMV protease site linker (C); made in house; host or cells: HEK293T cells
T1 sequence (Q9NZQ7 18-239): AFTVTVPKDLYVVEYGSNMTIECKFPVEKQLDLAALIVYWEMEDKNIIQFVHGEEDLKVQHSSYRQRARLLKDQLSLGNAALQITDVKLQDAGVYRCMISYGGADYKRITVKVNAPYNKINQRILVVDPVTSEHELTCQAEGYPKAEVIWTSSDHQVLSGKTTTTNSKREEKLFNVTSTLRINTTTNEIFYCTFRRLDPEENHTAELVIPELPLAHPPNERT
Procedure, shortened: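 HTRF read-out using europium cryptate anti-Ig (1 nM) and APC anti-His (20 nM) on extracellular-domain fusion proteins in dPBS/0.1% BSA/0.05% Tween-20. Inhibitor first incubated 15 min with 10 nM PD-L1-His, followed by 20 nM PD-1-Ig for another 15 min.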

| Structure (SMILES) | IC50 [nM] |
| --- | --- |
| CCCC[C@H]1C(=O)N(C)[C@@H](CCCC)C(=O)N[C@@H](CC(C)C)C(=O)N[C@H](C(=O)NCC(N)=O)CSCC(=O)N[C@@H](Cc2ccc(O)cc2)C(=O)N(C)[C@@H](C)C(=O)N[C@@H](CC(N)=O)C(=O)N2CCC[C@H]2C(=O)N[C@@H](CNC(=O)Nc2ccc([N+](=O)[O-])cc2)C(=O)N[C@@H](CC(C)C)C(=O)N2C[C@H](O)C[C@H]2C(=O)N[C@@H](Cc2c[nH]c3ccccc23)C(=O)N[C@@H](CCN)C(=O)N[C@@H](Cc2cn(CC(=O)O)c3ccccc23)C(=O)N1C [Example 1132] ({CH2CO}-Y[NMeA]NP[Dap]([CO-pNA])L[Hyp]W[Dab][Trp(1-CH2COOH)][NMeNle][NMeNle]LCG-NH2; thioether N-14) | 3.7 |
| CCCC[C@H]1C(=O)N(C)[C@@H](CCCC)C(=O)N[C@@H](CC(C)C)C(=O)N[C@H](C(=O)NCC(N)=O)CSCC(=O)N[C@@H](Cc2ccc(O)cc2)C(=O)N(C)[C@@H](C)C(=O)N[C@@H](CC(N)=O)C(=O)N2CCC[C@H]2C(=O)N[C@@H](CNC(=O)c2ccccc2)C(=O)N[C@@H](CC(C)C)C(=O)N2C[C@H](O)C[C@H]2C(=O)N[C@@H](Cc2c[nH]c3ccccc23)C(=O)N[C@@H](CCNC(=O)c2ccccc2)C(=O)N[C@@H](Cc2cn(CC(=O)OC)c3ccccc23)C(=O)N1C [Example 1006] ({CH2CO}-Y[NMeA]NP[Dap](Bz)L[Hyp]W[Dab](Bz)[Trp(1-CH2CO2Me)][NMeNle][NMeNle]LCG-NH2; thioether N-14) | 0.2 |

Same assay, conditions: PD-L1-His 10 nM pre-incubated with inhibitor, PD-1-Ig 20 nM; read-out: HTRF IC50

| Structure (SMILES) | IC50 [nM] |
| --- | --- |
| CCCC[C@H]1C(=O)N(C)[C@@H](CCCC)C(=O)N[C@@H](CC(C)C)C(=O)N[C@H](C(=O)NCC(N)=O)CSCC(=O)N[C@@H](Cc2ccc(O)cc2)C(=O)N(C)[C@@H](C)C(=O)N[C@@H](CC(N)=O)C(=O)N2CCC[C@H]2C(=O)N[C@@H](CNC(=S)Nc2ccc(-n3cnc(Cl)c3)c(OC)c2)C(=O)N[C@@H](CC(C)C)C(=O)N2C[C@H](O)C[C@H]2C(=O)N[C@@H](Cc2c[nH]c3ccccc23)C(=O)N[C@@H](CCN)C(=O)N[C@@H](Cc2cn(CC(=O)O)c3ccccc23)C(=O)N1C [Example 1059] ({CH2CO}-Y[NMeA]NP[Dap](X23)L[Hyp]W[Dab][Trp(1-CH2COOH)][NMeNle][NMeNle]LCG-NH2; thioether N-14) | 3.5 |
| CCCC[C@H]1C(=O)N(C)[C@@H](CCCC)C(=O)N[C@@H](CC(C)C)C(=O)N[C@H](C(=O)NCC(N)=O)CSCC(=O)N[C@@H](Cc2ccc(O)cc2)C(=O)N(C)[C@@H](C)C(=O)N[C@@H](CC(N)=O)C(=O)N2CCC[C@H]2C(=O)N[C@@H](CNC(=S)Nc2ccc(-c3cnco3)c(OC)c2)C(=O)N[C@@H](CC(C)C)C(=O)N2C[C@H](O)C[C@H]2C(=O)N[C@@H](Cc2c[nH]c3ccccc23)C(=O)N[C@@H](CCN)C(=O)N[C@@H](Cc2cn(CC(=O)O)c3ccccc23)C(=O)N1C [Example 1028] ({CH2CO}-Y[NMeA]NP[Dap](X50)L[Hyp]W[Dab][Trp(1-CH2COOH)][NMeNle][NMeNle]LCG-NH2; thioether N-14) | 4.4 |
| CCCC[C@H]1C(=O)N(C)[C@@H](CCCC)C(=O)N[C@@H](CC(C)C)C(=O)N[C@H](C(=O)NCC(N)=O)CSCC(=O)N[C@@H](Cc2ccc(O)cc2)C(=O)N(C)[C@@H](C)C(=O)N[C@@H](CC(N)=O)C(=O)N2CCC[C@H]2C(=O)N[C@@H](CNC(=S)Nc2ccc3ccccc3c2)C(=O)N[C@@H](CC(C)C)C(=O)N2C[C@H](O)C[C@H]2C(=O)N[C@@H](Cc2c[nH]c3ccccc23)C(=O)N[C@@H](CCN)C(=O)N[C@@H](Cc2cn(CC(=O)O)c3ccccc23)C(=O)N1C [Example 3028] ({CH2CO}-Y[NMeA]NP[Dap](X12)L[Hyp]W[Dab][Trp(1-CH2COOH)][NMeNle][NMeNle]LCG-NH2; thioether N-14) | 0.6 |
| CCCC[C@H]1C(=O)N(C)[C@@H](CCCC)C(=O)N[C@@H](CC(C)C)C(=O)N[C@H](C(=O)NCC(N)=O)CSCC(=O)N[C@@H](Cc2ccc(O)cc2)C(=O)N(C)[C@@H](C)C(=O)N[C@@H](CC(N)=O)C(=O)N2CCC[C@H]2C(=O)N[C@@H](CNC(=S)Nc2cc(OC)c(OC)c(OC)c2)C(=O)N[C@@H](CC(C)C)C(=O)N2C[C@H](O)C[C@H]2C(=O)N[C@@H](Cc2c[nH]c3ccccc23)C(=O)N[C@@H](CCNC(=S)Nc2cc(OC)c(OC)c(OC)c2)C(=O)N[C@@H](Cc2cn(CC(=O)O)c3ccccc23)C(=O)N1C [Example 1083] ({CH2CO}-Y[NMeA]NP[Dap](X84)L[Hyp]W[Dab](X84)[Trp(1-CH2COOH)][NMeNle][NMeNle]LCG-NH2; thioether N-14) | 0.6 |
| CCCC[C@H]1C(=O)N(C)[C@@H](CCCC)C(=O)N[C@@H](CC(C)C)C(=O)N[C@H](C(=O)NCC(N)=O)CSCC(=O)N[C@@H](Cc2ccc(O)cc2)C(=O)N(C)[C@@H](C)C(=O)N[C@@H](CC(N)=O)C(=O)N2CCC[C@H]2C(=O)N[C@@H](CNC(=S)Nc2ccc(C(=O)OCC)cc2)C(=O)N[C@@H](CC(C)C)C(=O)N2C[C@H](O)C[C@H]2C(=O)N[C@@H](Cc2c[nH]c3ccccc23)C(=O)N[C@@H](CCNC(=S)Nc2ccc(C(=O)OCC)cc2)C(=O)N[C@@H](Cc2cn(CC(=O)O)c3ccccc23)C(=O)N1C [Example 1043] ({CH2CO}-Y[NMeA]NP[Dap](X19)L[Hyp]W[Dab](X19)[Trp(1-CH2COOH)][NMeNle][NMeNle]LCG-NH2; thioether N-14) | 0.6 |
| CCCC[C@H]1C(=O)N(C)[C@@H](CCCC)C(=O)N[C@@H](CC(C)C)C(=O)N[C@H](C(=O)NCC(N)=O)CSCC(=O)N[C@@H](Cc2ccc(O)cc2)C(=O)N(C)[C@@H](C)C(=O)N[C@@H](CC(N)=O)C(=O)N2CCC[C@H]2C(=O)N[C@@H](CNC(=S)Nc2cc(C)nc3ccccc23)C(=O)N[C@@H](CC(C)C)C(=O)N2C[C@H](O)C[C@H]2C(=O)N[C@@H](Cc2c[nH]c3ccccc23)C(=O)N[C@@H](CCN)C(=O)N[C@@H](Cc2cn(CC(=O)O)c3ccccc23)C(=O)N1C [Example 3053] ({CH2CO}-Y[NMeA]NP[Dap](X91)L[Hyp]W[Dab][Trp(1-CH2COOH)][NMeNle][NMeNle]LCG-NH2; thioether N-14) | 3.4 |

Now from value to compound:

| IC50 [nM] | Structure (SMILES) |
| --- | --- |
| 15.2 | CCCC[C@H]1C(=O)N(C)[C@@H](CCCC)C(=O)N[C@@H](CC(C)C)C(=O)N[C@H](C(=O)NCC(N)=O)CSCC(=O)N[C@@H](Cc2ccc(O)cc2)C(=O)N(C)[C@@H](C)C(=O)N[C@@H](CC(N)=O)C(=O)N2CCC[C@H]2C(=O)N[C@@H](CNC(=S)Nc2ccc3c(c2)Cc2ccccc2-3)C(=O)N[C@@H](CC(C)C)C(=O)N2C[C@H](O)C[C@H]2C(=O)N[C@@H](Cc2c[nH]c3ccccc23)C(=O)N[C@@H](CCNC(=S)Nc2ccc3c(c2)Cc2ccccc2-3)C(=O)N[C@@H](Cc2cn(CC(=O)O)c3ccccc23)C(=O)N1C [Example 2012] ({CH2CO}-Y[NMeA]NP[Dap](X1)L[Hyp]W[Dab](X1)[Trp(1-CH2COOH)][NMeNle][NMeNle]LCG-NH2; thioether N-14) |
| 10 | CCCC[C@H]1C(=O)N(C)[C@@H](CCCC)C(=O)N[C@@H](CC(C)C)C(=O)N[C@H](C(=O)NCC(N)=O)CSCC(=O)N[C@@H](Cc2ccc(O)cc2)C(=O)N(C)[C@@H](C)C(=O)N[C@@H](CC(N)=O)C(=O)N2CCC[C@H]2C(=O)N[C@@H](CN)C(=O)N[C@@H](CC(C)C)C(=O)N2C[C@H](O)C[C@H]2C(=O)N[C@@H](Cc2c[nH]c3ccccc23)C(=O)N[C@@H](CCNC(=O)Nc2ccc(C(F)(F)F)cc2Cl)C(=O)N[C@@H](Cc2cn(CC(=O)O)c3ccccc23)C(=O)N1C [Example 1115] ({CH2CO}-Y[NMeA]NP[Dap]L[Hyp]W[Dab]([CO-X30])[Trp(1-CH2COOH)][NMeNle][NMeNle]LCG-NH2; thioether N-14) |
| 9.2 | CCCC[C@H]1C(=O)N(C)[C@@H](CCCC)C(=O)N[C@@H](CC(C)C)C(=O)N[C@H](C(=O)NCC(N)=O)CSCC(=O)N[C@@H](Cc2ccc(O)cc2)C(=O)N(C)[C@@H](C)C(=O)N[C@@H](CC(N)=O)C(=O)N2CCC[C@H]2C(=O)N[C@@H](CNC(=O)Nc2cc3ccccc3s2)C(=O)N[C@@H](CC(C)C)C(=O)N2C[C@H](O)C[C@H]2C(=O)N[C@@H](Cc2c[nH]c3ccccc23)C(=O)N[C@@H](CCN)C(=O)N[C@@H](Cc2cn(CC(=O)O)c3ccccc23)C(=O)N1C [Example 3032] ({CH2CO}-Y[NMeA]NP[Dap]([CO-X45])L[Hyp]W[Dab][Trp(1-CH2COOH)][NMeNle][NMeNle]LCG-NH2; thioether N-14) |
| 4.2 | CCCC[C@H]1C(=O)N(C)[C@@H](CCCC)C(=O)N[C@@H](CC(C)C)C(=O)N[C@H](C(=O)NCC(N)=O)CSCC(=O)N[C@@H](Cc2ccc(O)cc2)C(=O)N(C)[C@@H](C)C(=O)N[C@@H](CC(N)=O)C(=O)N2CCC[C@H]2C(=O)N[C@@H](CNC(=S)Nc2cc(OC)cc(OC)c2)C(=O)N[C@@H](CC(C)C)C(=O)N2C[C@H](O)C[C@H]2C(=O)N[C@@H](Cc2c[nH]c3ccccc23)C(=O)N[C@@H](CCNC(=S)Nc2cc(OC)cc(OC)c2)C(=O)N[C@@H](Cc2cn(CC(=O)O)c3ccccc23)C(=O)N1C [Example 1086] ({CH2CO}-Y[NMeA]NP[Dap](X55)L[Hyp]W[Dab](X55)[Trp(1-CH2COOH)][NMeNle][NMeNle]LCG-NH2; thioether N-14) |
| 2.5 | CCCC[C@H]1C(=O)N(C)[C@@H](CCCC)C(=O)N[C@@H](CC(C)C)C(=O)N[C@H](C(=O)NCC(N)=O)CSCC(=O)N[C@@H](Cc2ccc(O)cc2)C(=O)N(C)[C@@H](C)C(=O)N[C@@H](CC(N)=O)C(=O)N2CCC[C@H]2C(=O)N[C@@H](CNC(=O)Nc2cc(F)cc(F)c2)C(=O)N[C@@H](CC(C)C)C(=O)N2C[C@H](O)C[C@H]2C(=O)N[C@@H](Cc2c[nH]c3ccccc23)C(=O)N[C@@H](CCN)C(=O)N[C@@H](Cc2cn(CC(=O)O)c3ccccc23)C(=O)N1C [Example 1079] ({CH2CO}-Y[NMeA]NP[Dap]([CO-X37])L[Hyp]W[Dab][Trp(1-CH2COOH)][NMeNle][NMeNle]LCG-NH2; thioether N-14) |
